The subject of this experiment is P. aeruginosa (ATCC 19660). As to the kind of experiment: Antibiotic susceptibility (MIC, Microscan® MIC Plus Type 2 panel) with rBPI21/P123 and EDTA. The experiment is classed as cell-based. Conditions: for effect of EDTA added to the rBPI21/P123 formulation on susceptibility of the strain to the antibiotic: summary of Table 17. More on the design: key to susceptibility interpretation of MIC (superscript): R: resistant; I: intermediate; S: susceptible. How it is done: In additional experiments, a BPI protein product, rBPI21, was formulated with an anti-bacterial activity enhancing poloxamer, specifically PLURONIC P123, and with various concentrations of EDTA, and was evaluated for its effect on the antibiotic susceptibility of a Pseudomonas aeruginosa (ATCC 19660). Antibiotic susceptibility was determined using Microscan® panel plates (Dade Microscan, West Sacramento, Calif.) that allow simultaneous determination of minimum inhibitory concentrations for a number of different antibiotics.
The antimicrobial susceptibility tests performed on the Microscan® panel plates are miniaturizations of the broth dilution susceptibility test. Antimicrobial agents are serially diluted in Mueller-Hinton broth (supplemented with calcium and magnesium, or with sodium chloride for oxacillin, or with thymidine phosphorylase for trimethoprim, sulfamethoxazole and trimethoprim/ sulfamethoxazole) to concentrations bridging the range of clinical interest. One well on the 96-well Microscan® plate is a growth control well that contains dehydrated broth only. The remaining wells contain dehydrated broth and antibiotic (or broth and biochemical reagent indicator), which is rehydrated to the desired concentration by inoculation of a standardized suspension of test organism. The chromogenic biochemical agent indicators are used to identify and characterize the species of bacteria based on detection of pH changes and substrate utilization. […] Gram-negative and gram positive organisms may be tested using any of the Microscan® panel plates (Microscan®, Dade Microscan, West Sacramento, Calif.). In these experiments with P. aeruginosa, the MIC Plus Type 2 panel plates were used. The concentrations of antibiotics tested in this panel plate are shown below in Table 16. The antibiotic susceptibility standards (interpretation of an MIC as resistant, intermediate or susceptible according to Microscan®'s NCCLS-derived standards) applicable to the gram-negative organisms that may be tested in each panel plate appear below in Table 16A.
For these experiments with P. aeruginosa, the following procedure was performed: The organism was streaked onto TSA plates (Remel, Lenexa, Kans.) and incubated for 18-24 hours overnight. Well-isolated A, colonies from the plates were emulsified in 3 ml of sterile Inoculum Water d(catalog no. B1015-2, MicrosScan® system, Dade Microscan, West Sacramento, Calif.) to a final turbidity equivalent to 0.5 McFarland Barium Sulfate standard. This cell suspension was vortexed for 2 to 3 seconds and 100 μl was transferred to glass tubes containing 25 ml of Inoculum Water with Pluronic-D (catalog no. B1015-7, MicroScan® system, Dade Microscan, West Sacramento, Calif.) (hereinafter “Pluronic Inoculum Water”), or 25 ml of Pluronic Inoculum Water into which rBPI21 in 0.2% PLURONIC P123, 0.002% TWEEN 80, 5mM sodium citrate, 150 mM NaCl (“rBPI21/P123”) had been diluted to 64 μg/ml rBPI21.
The 25 ml of this inoculum containing rBPI21 was mixed by inversion and poured into a tray. The inoculum was drawn up into a manual 96-well pipetting system (RENOK^− rehydrator-inoculator system, Dade Microscan, West Sacramento, Calif.) designed for use with the Microscan® panel plates, and 110 μl of the inoculum was delivered to each well of a Microscan® MIC Plus Type 2 panel plate. When added to the wells, this inoculum achieves a final bacterial concentration of 4×10^5 to 7×10^5 CFU/ml. The panel plates were then incubated at 35° C. for 15-24 hours and read visually for cell growth.
No growth was defined as a slight whiteness in the well or a clear broth. Growth appeared as turbidity which could take the form of a white haze throughout the well, a white button in the center of the well, or a fine granule growth throughout the well. All wells were read against a black indirectly lighted background. Visual results of the biochemical reactions were read into a database for bacterial identification.

Where [1] appears, read: rBPI21/P123 at 64 μg/ml rBPI21, With 0% EDTA.
The mark [2] stands for this setting: rBPI21/P123 at 64 μg/ml rBPI21, With 0.01% EDTA.
[3] abbreviates: rBPI21/P123 at 64 μg/ml rBPI21, With 0.05% EDTA.
Setting [4] is: rBPI21/P123 at 64 μg/ml rBPI21, With 0.1% EDTA.

Bounds are passed on as bounds.

Take `CC1(C)S[C@@H]2[C@H](NC(=O)[C@H](NC(=O)N3CCN(S(C)(=O)=O)C3=O)c3ccccc3)C(=O)N2[C@H]1C(=O)O` [Mezlocillin]: the “Minimum Inhibitory Concentration of Antibiotic” value (shortened to “Minimum Inhibitory Concentration”) is, setting by setting: (Control (No BPI21)) < 16 µg/mL; under setting [1], < 16 µg/mL; under setting [2], < 16 µg/mL; under setting [3], < 16 µg/mL; under setting [4], < 16 µg/mL. Besides, the “susceptibility interpretation of MIC (superscript)” value (“susceptibility interpretation” below) is listed as “S” (Control (No BPI21)); “S” under setting [1]; “S” under setting [2]; “S” under setting [3]; “S” under setting [4].

For the molecule `CCN[C@@H]1C[C@H](N)[C@@H](O[C@H]2OC(CN)=CC[C@H]2N)[C@H](O)[C@H]1O[C@H]1OC[C@](C)(O)[C@H](NC)[C@H]1O` [Netilmicin], the “Minimum Inhibitory Concentration” value (Control (No BPI21)) was 4 µg/mL; the “Minimum Inhibitory Concentration” value under setting [1] was < 2 µg/mL; the “Minimum Inhibitory Concentration” value under setting [2] was < 2 µg/mL; the “Minimum Inhibitory Concentration” value under setting [3] was < 2 µg/mL; the “Minimum Inhibitory Concentration” value under setting [4] is < 2 µg/mL. For the same molecule, the “susceptibility interpretation” value (Control (No BPI21)) is on record as “S”; the “susceptibility interpretation” value under setting [1] is on record as “S”; the “susceptibility interpretation” value under setting [2] is “S”; the “susceptibility interpretation” value under setting [3] was “S”; the “susceptibility interpretation” value under setting [4] is recorded as “S”.

In the case of `C[C@@H](O)[C@H]1C(=O)N2C(C(=O)O)=C(SCCN=CN)C[C@H]12` [Imipenem], the “Minimum Inhibitory Concentration” value by setting is: (Control (No BPI21)) 1 µg/mL; under setting [1], 1 µg/mL; under setting [2], < 0.5 µg/mL; under setting [3], < 0.5 µg/mL; under setting [4], < 0.5 µg/mL. Besides, the “susceptibility interpretation” value was “S” (Control (No BPI21)); “S” under setting [1]; “S” under setting [2]; “S” under setting [3]; “S” under setting [4].

In the case of Ampicillin/Sulbactam [Amp/Sulbact], the “effect of EDTA added to the rBPI21/P123 formulation on susceptibility of the strain to the antibiotic” value (shortened to “effect of EDTA added”) was “reversing resistance”. Moreover, for the setting “Control (No BPI21)”, the “Minimum Inhibitory Concentration” value is > 32 µg/mL and the “susceptibility interpretation” value is listed as “R”. Under setting [1], the “Minimum Inhibitory Concentration” value is > 32 µg/mL and the “susceptibility interpretation” value is given as “R”. Further, under setting [2], the “Minimum Inhibitory Concentration” value was < 1 µg/mL and the “susceptibility interpretation” value is given as “S”. Further, under setting [3], the “Minimum Inhibitory Concentration” value worked out at 16 µg/mL and the “susceptibility interpretation” value is “I”. Moreover, under setting [4], the “Minimum Inhibitory Concentration” value was found to be 16 µg/mL and the “susceptibility interpretation” value is given as “I”.

`CO/N=C(\C(=O)N[C@@H]1C(=O)N2C(C(=O)O)=C(COC(C)=O)CS[C@H]12)c1csc(N)n1` [Cefotaxime]: the “effect of EDTA added” value was “increasing the susceptibility”. Moreover, where the note is “Control (No BPI21)”, the “Minimum Inhibitory Concentration” value came to 32 µg/mL and the “susceptibility interpretation” value is “I”. In addition, under setting [1], the “Minimum Inhibitory Concentration” value amounted to 16 µg/mL and the “susceptibility interpretation” value is given as “I”. In addition, under setting [2], the “Minimum Inhibitory Concentration” value was 4 µg/mL and the “susceptibility interpretation” value is listed as “S”. For the same molecule, under setting [3], the “Minimum Inhibitory Concentration” value is < 2 µg/mL and the “susceptibility interpretation” value is listed as “S”. Under setting [4], the “Minimum Inhibitory Concentration” value is < 2 µg/mL and the “susceptibility interpretation” value is given as “S”.

Consider `O=C(O)C1=C(CSc2nnnn2CS(=O)(=O)O)CS[C@@H]2[C@H](NC(=O)[C@H](O)c3ccccc3)C(=O)N12` [Cefonicid], for which the “effect of EDTA added” value is “reversing resistance”. Also, under “Control (No BPI21)”, the “Minimum Inhibitory Concentration” value was > 16 µg/mL and the “susceptibility interpretation” value is on record as “R”. Under setting [1], the “Minimum Inhibitory Concentration” value was > 16 µg/mL and the “susceptibility interpretation” value is “R”. Under setting [2], the “Minimum Inhibitory Concentration” value is < 2 µg/mL and the “susceptibility interpretation” value is “S”. Further, under setting [3], the “Minimum Inhibitory Concentration” value is < 2 µg/mL and the “susceptibility interpretation” value is reported as “S”. Under setting [4], the “Minimum Inhibitory Concentration” value is < 2 µg/mL and the “susceptibility interpretation” value is reported as “S”.

Turning to `C[C@H]1[C@H](NC(=O)/C(=N\OC(C)(C)C(=O)O)c2csc(N)n2)C(=O)N1S(=O)(=O)O` [Aztreonam], the “effect of EDTA added” value is “increasing the susceptibility”. For the setting “Control (No BPI21)”, the “Minimum Inhibitory Concentration” value stood at 4 µg/mL and the “susceptibility interpretation” value is “S”. In addition, under setting [1], the “Minimum Inhibitory Concentration” value turned out to be 4 µg/mL and the “susceptibility interpretation” value is recorded as “S”. For the same molecule, under setting [2], the “Minimum Inhibitory Concentration” value was < 1 µg/mL and the “susceptibility interpretation” value is “S”. Under setting [3], the “Minimum Inhibitory Concentration” value turned out to be 2 µg/mL and the “susceptibility interpretation” value is reported as “S”. Further, under setting [4], the “Minimum Inhibitory Concentration” value is < 1 µg/mL and the “susceptibility interpretation” value is “S”.

As to `CC1(C)S[C@@H]2[C@H](NC(=O)[C@H](C(=O)O)c3ccsc3)C(=O)N2[C@H]1C(=O)O` [Ticarcillin], the “Minimum Inhibitory Concentration” value by setting is: (Control (No BPI21)) < 16 µg/mL; under setting [1], < 16 µg/mL; under setting [2], < 16 µg/mL; under setting [3], < 16 µg/mL; under setting [4], < 16 µg/mL. The “susceptibility interpretation” value is “S” (Control (No BPI21)); “S” under setting [1]; “S” under setting [2]; “S” under setting [3]; “S” under setting [4].

`CC1(C)S[C@@H]2[C@H](NC(=O)[C@H](NC(=O)N3CCNC3=O)c3ccccc3)C(=O)N2[C@H]1C(=O)O` [Azlocillin]: the “Minimum Inhibitory Concentration” value (Control (No BPI21)) was < 64 µg/mL; the “Minimum Inhibitory Concentration” value under setting [1] is < 64 µg/mL; the “Minimum Inhibitory Concentration” value under setting [2] is < 64 µg/mL; the “Minimum Inhibitory Concentration” value under setting [3] is < 64 µg/mL; the “Minimum Inhibitory Concentration” value under setting [4] is < 64 µg/mL. Also, the “susceptibility interpretation” value runs as follows: (Control (No BPI21)) “S”; under setting [1], “S”; under setting [2], “S”; under setting [3], “S”; under setting [4], “S”.

(Values after patent US6849598B1, “Therapeutic compositions comprising bactericidal/permeability-increasing (BPI) protein products” (XOMA, priority 1995, dated 2005).)
